Read-outs that look alike come from different tables or passages of the source.

Data on 7 compounds can be found in US3969532A, “1-Aryl-3-(2-hydroxyethyl) thioureas for treating depression” (The Dow Chemical Company, priority 1975, dated 1976).

For the assay, the system named is reserpine-induced ptosis. Description: Antagonism of reserpine-induced ptosis in mice (antidepressant test). To be noted: for ED50: Mus musculus, 1.25 h; for inhibition of reserpine-induced ptosis (in words): comparative trials, dosages of 60 mg/kg (i.p.). The class given is in vivo.
[1] abbreviates: ip, mice, compound i.p. 30 minutes before i.p. reserpine, ptosis noted 45 minutes after reserpine, read-out: ED50 (median effective dose protecting 50% of mice from reserpine-induced ptosis), i.p.
The mark [2] stands for this setting: mice, compound oral 30 minutes before i.p. reserpine, ptosis noted 45 minutes after reserpine, read-out: ED50 (median effective dose protecting 50% of mice from reserpine-induced ptosis), oral.

Protocol: The antidepressant properties of the compounds employed in the methods of the present invention are determined by measuring their ability to counteract ptosis induced in animals by the intraperitoneal injection of reserpine. […] Forty-five minutes after the administration of reserpine, the presence or absence of ptosis is noted. The percent inhibition of ptosis is noted and the median effective dose (ED50) of each test ingredient which protected 50% of the test mice from reserpine-induced ptosis was calculated.

For `COc1ccc(NC(=S)NCCO)c(OC)c1` [Compound 3, 1-(2,4-dimethoxyphenyl)-3-(2-hydroxyethyl)thiourea], the ED50 under setting [1] turned out to be 38 mg/kg. Turning to `COc1ccccc1NC(=S)NCCO` [Compound 2-methoxy], the “inhibition of reserpine-induced ptosis (in words)” value is recorded as “did not inhibit reserpine-induced ptosis”. As to `CN(C)CCC=C1c2ccccc2COc2ccccc21` [Doxepin], the ED50 is, setting by setting: under setting [2], 27 mg/kg; under setting [1], 27 mg/kg.

For the compound `COc1ccc(NC(=S)NCCO)cc1OC` [3,4-dimethoxy], the “inhibition of reserpine-induced ptosis (in words)” value is reported as “did not inhibit reserpine-induced ptosis”. In the case of `Cc1ccc(CNC(=S)NCCO)c(C)c1` [Compound 1, 1-(2,4-dimethylbenzyl)-3-(2-hydroxyethyl)thiourea], the ED50 stood at 6.8 mg/kg under setting [2] and 11 mg/kg under setting [1]. As to `CN(C)CCCN1c2ccccc2CCc2ccccc21` [Imipramine], the median effective dose (ED50) (po, read-out: ED50 (median effective dose protecting 50% of mice from reserpine-induced ptosis), oral) was 14 mg/kg.

For `COc1ccc(NC(=S)NCCO)c(C)c1` [Compound 2, 1-(4-methoxy-2-methylphenyl)-3-(2-hydroxyethyl)thiourea], the 50% effective dose (ED50) amounted to 16.2 mg/kg under setting [2] and 10 mg/kg under setting [1].
